Measurements published in patent US8859535B2, “Hydroxy substituted isoquinolinone derivatives” (Novartis AG, priority 2011, dated 2014).

What was measured:
[1] = target: T1, human MDM2 protein (amino acids 2-188) (Homo sapiens, UniProt Q00987); assay: p53-MDM2 TR-FRET assay (p53-MDM2 Assay 1); type: binding; details: 1.25 nM MDM2-biotinylated, 10 nM Cy5-p53 peptide; read-out: IC50 (μM) of p53-Hdm2 inhibition (TR-FRET) Assay 1
T1 construct: human MDM2 protein (amino acids 2-188); made in house
Method in brief: (§1)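 C-terminally biotinylated MDM2 (aa 2-188, 1.25 nM) or MDM4 (aa 2-185, 2.5 nM) with Eu-streptavidin (0.625 nM), 15 min preincubation, then 10 nM Cy5-p53 peptide (aa18-26), 15 min room temperature; TR-FRET 665/620 nm ratio, IC50 by curve fit. Modified MDM2 Assay 2 uses 0.1 nM MDM2 and 0.1 nM Eu-streptavidin.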

[2] = target: T2, human MDM4 protein (amino acids 2-185) (Homo sapiens, UniProt O15151); assay: p53-MDM4 TR-FRET assay (p53-MDM4 Assay 1); type: binding; details: 2.5 nM MDM4-biotinylated, 10 nM Cy5-p53 peptide; read-out: IC50 (μM) of p53-Hdm4 inhibition (TR-FRET) Assay 1
T2 construct: human MDM4 protein (amino acids 2-185); made in house
T2 sequence (O15151 2-185): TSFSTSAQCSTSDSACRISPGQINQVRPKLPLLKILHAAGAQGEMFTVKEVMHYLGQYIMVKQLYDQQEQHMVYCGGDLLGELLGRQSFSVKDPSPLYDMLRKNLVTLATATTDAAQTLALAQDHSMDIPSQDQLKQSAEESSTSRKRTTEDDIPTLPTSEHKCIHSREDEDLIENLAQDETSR
Method in brief: as §1

T1 sequence (Q00987 2-188): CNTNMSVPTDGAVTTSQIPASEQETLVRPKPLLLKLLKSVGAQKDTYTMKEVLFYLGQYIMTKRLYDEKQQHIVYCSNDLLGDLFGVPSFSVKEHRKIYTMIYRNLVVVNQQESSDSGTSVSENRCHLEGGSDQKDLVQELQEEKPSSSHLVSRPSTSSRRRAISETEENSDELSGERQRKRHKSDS

SMILES | IC50 [1] [µM] | IC50 [2] [µM]
COc1cc2c(cc1OC(C)C)[C@H](c1ccc(Cl)cc1)N(c1ccc(C(C)(O)C3CN(C4CCN(C)CC4)C3)cc1)C(=O)C2 (stereo partly drawn) [Example 101, (S)-1-(4-Chloro-phenyl)-2-(4-{1-hydroxy-1-[1-(1-methyl-piperidin-4-yl)-azetidin-3-yl]-ethyl}-phenyl)-7-isopropoxy-6-methoxy-1,4-dihydro-2H-isoquinolin-3-one] | 0.0085 | 9.21
COc1cc2c(cc1OC(C)C)[C@H](c1ccc(Cl)cc1)N(c1ccc(C(C)(O)C34CCC(CC3)C4)cc1)C(=O)C2 (stereo partly drawn) [Example 138, (S)-2-[4-(1-Bicyclo[2.2.1]hept-1-yl-1-hydroxy-ethyl)-phenyl]-1-(4-chloro-phenyl)-7-isopropoxy-6-methoxy-1,4-dihydro-2H-isoquinolin-3-one] | 0.0062 | 7.54
COCCOc1cc2c(cc1OC(C)C)[C@H](c1ccc(Cl)cc1)N(c1ccc(C(C)(O)C3CCOCC3)cc1)C(=O)C2 (stereo partly drawn) [Example 145, (S)-1-(4-Chloro-phenyl)-2-{4-[1-hydroxy-1-(tetrahydro-pyran-4-yl)-ethyl]-phenyl}-7-isopropoxy-6-(2-methoxy-ethoxy)-1,4-dihydro-2H-isoquinolin-3-one] | 0.0083 | 3
CC(C)Oc1cc2c(cc1OCc1ccccn1)CC(=O)N(c1ccc(C(C)(O)C3CCOCC3)cc1)[C@H]2c1ccc(Cl)cc1 (stereo partly drawn) [Example 146, (S)-1-(4-Chloro-phenyl)-2-{4-[1-hydroxy-1-(tetrahydro-pyran-4-yl)-ethyl]-phenyl}-7-isopropoxy-6-(pyridin-2-ylmethoxy)-1,4-dihydro-2H-isoquinolin-3-one] | 0.005 | 1.19
CC(C)Oc1cc2c(cc1OCC1COC1)CC(=O)N(c1ccc(C(C)(O)C3CCOCC3)cc1)[C@H]2c1ccc(Cl)cc1 (stereo partly drawn) [Example 147, (S)-1-(4-Chloro-phenyl)-2-{4-[1-hydroxy-1-(tetrahydro-pyran-4-yl)-ethyl]-phenyl}-7-isopropoxy-6-(oxetan-3-ylmethoxy)-1,4-dihydro-2H-isoquinolin-3-one] | 0.0086 | 3.05
CNC(=O)COc1cc2c(cc1OC(C)C)[C@H](c1ccc(Cl)cc1)N(c1ccc(C(C)(O)C3CCOCC3)cc1)C(=O)C2 (stereo partly drawn) [Example 148, 2-((S)-1-(4-Chloro-phenyl)-2-{4-[1-hydroxy-1-(tetrahydro-pyran-4-yl)-ethyl]-phenyl}-7-isopropoxy-3-oxo-1,2,3,4-tetrahydro-isoquinolin-6-yloxy)-N-methyl-acetamide] | 0.0067 | 2.64
CC(C)Oc1cc2c(cc1OCC(=O)N(C)C)CC(=O)N(c1ccc(C(C)(O)C3CCOCC3)cc1)[C@H]2c1ccc(Cl)cc1 (stereo partly drawn) [Example 149, 2-((S)-1-(4-Chloro-phenyl)-2-{4-[1-hydroxy-1-(tetrahydro-pyran-4-yl)-ethyl]-phenyl}-7-isopropoxy-3-oxo-1,2,3,4-tetrahydro-isoquinolin-6-yloxy)-N,N-dimethyl-acetamide] | 0.0101 | 5.53
COc1cc2c(cc1OC(C)C)[C@H](c1ccc(Cl)cc1)N(c1ccc(C(C)(O)C3CC(C)(C)OC(C)(C)C3)cc1)C(=O)C2 (stereo partly shown) [Example 162] | 0.0065 | 5.53

Continued, values first:

IC50 [1] [µM] | IC50 [2] [µM] | SMILES
0.0078 | 7.38 | COc1cc2c(cc1OC(C)C)[C@H](c1ccc(Cl)cc1)N(c1ccc(C(C)(O)C3CN(C(=O)CO)C3)cc1)C(=O)C2 (stereo partly drawn) [Example 102, (S)-1-(4-Chloro-phenyl)-2-(4-{1-hydroxy-1-[1-(2-hydroxy-acetyl)-azetidin-3-yl]-ethyl}-phenyl)-7-isopropoxy-6-methoxy-1,4-dihydro-2H-isoquinolin-3-one]
0.0132 | 14.2 | COc1cc2c(cc1OC(C)C)[C@H](c1ccc(Cl)cc1)N(c1ccc(C(C)(O)C3CC4CCC(C3)N4C(C)=O)cc1)C(=O)C2 (stereo partly drawn) [Example 104, (S)-2-{4-[1-(8-Acetyl-8-aza-bicyclo[3.2.1]oct-3-yl)-1-hydroxy-ethyl]-phenyl}-1-(4-chloro-phenyl)-7-isopropoxy-6-methoxy-1,4-dihydro-2H-isoquinolin-3-one]
0.0049 | 4.23 | COc1cc2c(cc1OC(C)C)[C@H](c1ccc(Cl)cc1)N(c1ccc(C(C)(O)C3CC4CCC(C3)N4C(C)C)cc1)C(=O)C2 (stereo partly drawn) [Example 110, (S)-1-(4-Chloro-phenyl)-2-{4-[1-hydroxy-1-(8-isopropyl-8-aza-bicyclo[3.2.1]oct-3-yl)-ethyl]-phenyl}-7-isopropoxy-6-methoxy-1,4-dihydro-2H-isoquinolin-3-one]
0.00735 | 7.78 | COc1cc2c(cc1OC(C)C)[C@H](c1ccc(Cl)cc1)N(c1ccc(C(C)(O)C3CCS(=O)(=O)CC3)cc1)C(=O)C2 (stereo partly drawn) [Example 166, (S)-1-(4-Chloro-phenyl)-2-{4-[1-(1,1-dioxo-hexahydro-1-thiopyran-4-yl)-1-hydroxy-ethyl]-phenyl}-7-isopropoxy-6-methoxy-1,4-dihydro-2H-isoquinolin-3-one]
0.125 | 51.1 | COc1cc2c(cc1OC(C)C)[C@H](c1ccc(Cl)cc1)N(c1ccc([C@](C)(O)C3CCS(=O)(=O)CC3)cc1)C(=O)C2 [Example 167, (S)-1-(4-Chloro-phenyl)-2-{4-[(R)-1-(1,1-dioxo-hexahydro-1-thiopyran-4-yl)-1-hydroxy-ethyl]-phenyl}-7-isopropoxy-6-methoxy-1,4-dihydro-2H-isoquinolin-3-one]
0.0096 | 8.3 | COc1cc2c(cc1OC(C)C)[C@H](c1ccc(Cl)cc1)N(c1ccc(C(C)(O)C3CC[S+]([O-])CC3)cc1)C(=O)C2 (stereo partly drawn) [Example 169, (S)-1-(4-Chloro-phenyl)-2-{4-[1-hydroxy-1-(1-oxo-hexahydro-1-thiopyran-4-yl)-ethyl]-phenyl}-7-isopropoxy-6-methoxy-1,4-dihydro-2H-isoquinolin-3-one]
0.168 | 62.5 | COc1cc2c(cc1OC(C)C)[C@H](c1ccc(Cl)cc1)N(c1ccc([C@](C)(O)C3CC[S+]([O-])CC3)cc1)C(=O)C2 (stereo partly drawn) [Example 170, (S)-1-(4-Chloro-phenyl)-2-{4-[(R)-1-hydroxy-1-(1-oxo-hexahydro-thiopyran-4-yl)-ethyl]-phenyl}-7-isopropoxy-6-methoxy-1,4-dihydro-2H-isoquinolin-3-one]
0.0031 | 4.4 | COc1cc2c(cc1OC(C)C)[C@H](c1ccc(Cl)cc1)N(c1ccc([C@@](C)(O)C3CC[S+]([O-])CC3)cc1)C(=O)C2 (stereo partly drawn) [Example 171, (S)-1-(4-Chloro-phenyl)-2-{4-[(S)-1-hydroxy-1-(1-oxo-hexahydro-1-thiopyran-4-yl)-ethyl]-phenyl}-7-isopropoxy-6-methoxy-1,4-dihydro-2H-isoquinolin-3-one]
0.0943 | 41.4 | COc1cc2c(cc1OC(C)C)[C@H](c1ccc(Cl)cc1)N(c1ccc([C@](C)(O)C3CC4CCC(C3)S4(=O)=O)cc1)C(=O)C2 (stereo partly drawn) [Example 173, (S)-1-(4-Chloro-phenyl)-2-{4-[(R)-1-(8,8-dioxo-8-thia-bicyclo[3.2.1]oct-3-yl)-1-hydroxy-ethyl]-phenyl}-7-isopropoxy-6-methoxy-1,4-dihydro-2H-isoquinolin-3-one]
